pIC50: −log10 of the molar value.
Biological target: T1, human acetyl-CoA carboxylase 2 (ACC2) (Homo sapiens, UniProt O00763)
T1 construct: The cDNA encoding amino acids 144 to 2458 of human acetyl-CoA carboxylase 2; made in house; host or cells: Sf9 insect cells (baculovirus, pFastBac1)
Assay: Acetyl-CoA carboxylase enzyme assay (malonyl-CoA formation by LC/MS/MS)
Format: biochemical
Settings: recombinant human ACC2 (aa 144-2458); read-out: IC50 ACC2
Summary of the method: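 Malonyl-CoA formation was read by LC/MS/MS MRM against a [13C3]-malonyl-CoA internal standard, after acetic acid quench. The enzyme was baculovirus/Sf9-expressed human ACC2 residues 144–2458, given 15 minutes room-temperature compound preincubation in HEPES pH 7.5 buffer with MgCl2, citrate and DTT. Substrate solution held 50 μM acetyl-CoA, 120 μM ATP and 2 mM KHCO3.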

T1 sequence (O00763 144-2458): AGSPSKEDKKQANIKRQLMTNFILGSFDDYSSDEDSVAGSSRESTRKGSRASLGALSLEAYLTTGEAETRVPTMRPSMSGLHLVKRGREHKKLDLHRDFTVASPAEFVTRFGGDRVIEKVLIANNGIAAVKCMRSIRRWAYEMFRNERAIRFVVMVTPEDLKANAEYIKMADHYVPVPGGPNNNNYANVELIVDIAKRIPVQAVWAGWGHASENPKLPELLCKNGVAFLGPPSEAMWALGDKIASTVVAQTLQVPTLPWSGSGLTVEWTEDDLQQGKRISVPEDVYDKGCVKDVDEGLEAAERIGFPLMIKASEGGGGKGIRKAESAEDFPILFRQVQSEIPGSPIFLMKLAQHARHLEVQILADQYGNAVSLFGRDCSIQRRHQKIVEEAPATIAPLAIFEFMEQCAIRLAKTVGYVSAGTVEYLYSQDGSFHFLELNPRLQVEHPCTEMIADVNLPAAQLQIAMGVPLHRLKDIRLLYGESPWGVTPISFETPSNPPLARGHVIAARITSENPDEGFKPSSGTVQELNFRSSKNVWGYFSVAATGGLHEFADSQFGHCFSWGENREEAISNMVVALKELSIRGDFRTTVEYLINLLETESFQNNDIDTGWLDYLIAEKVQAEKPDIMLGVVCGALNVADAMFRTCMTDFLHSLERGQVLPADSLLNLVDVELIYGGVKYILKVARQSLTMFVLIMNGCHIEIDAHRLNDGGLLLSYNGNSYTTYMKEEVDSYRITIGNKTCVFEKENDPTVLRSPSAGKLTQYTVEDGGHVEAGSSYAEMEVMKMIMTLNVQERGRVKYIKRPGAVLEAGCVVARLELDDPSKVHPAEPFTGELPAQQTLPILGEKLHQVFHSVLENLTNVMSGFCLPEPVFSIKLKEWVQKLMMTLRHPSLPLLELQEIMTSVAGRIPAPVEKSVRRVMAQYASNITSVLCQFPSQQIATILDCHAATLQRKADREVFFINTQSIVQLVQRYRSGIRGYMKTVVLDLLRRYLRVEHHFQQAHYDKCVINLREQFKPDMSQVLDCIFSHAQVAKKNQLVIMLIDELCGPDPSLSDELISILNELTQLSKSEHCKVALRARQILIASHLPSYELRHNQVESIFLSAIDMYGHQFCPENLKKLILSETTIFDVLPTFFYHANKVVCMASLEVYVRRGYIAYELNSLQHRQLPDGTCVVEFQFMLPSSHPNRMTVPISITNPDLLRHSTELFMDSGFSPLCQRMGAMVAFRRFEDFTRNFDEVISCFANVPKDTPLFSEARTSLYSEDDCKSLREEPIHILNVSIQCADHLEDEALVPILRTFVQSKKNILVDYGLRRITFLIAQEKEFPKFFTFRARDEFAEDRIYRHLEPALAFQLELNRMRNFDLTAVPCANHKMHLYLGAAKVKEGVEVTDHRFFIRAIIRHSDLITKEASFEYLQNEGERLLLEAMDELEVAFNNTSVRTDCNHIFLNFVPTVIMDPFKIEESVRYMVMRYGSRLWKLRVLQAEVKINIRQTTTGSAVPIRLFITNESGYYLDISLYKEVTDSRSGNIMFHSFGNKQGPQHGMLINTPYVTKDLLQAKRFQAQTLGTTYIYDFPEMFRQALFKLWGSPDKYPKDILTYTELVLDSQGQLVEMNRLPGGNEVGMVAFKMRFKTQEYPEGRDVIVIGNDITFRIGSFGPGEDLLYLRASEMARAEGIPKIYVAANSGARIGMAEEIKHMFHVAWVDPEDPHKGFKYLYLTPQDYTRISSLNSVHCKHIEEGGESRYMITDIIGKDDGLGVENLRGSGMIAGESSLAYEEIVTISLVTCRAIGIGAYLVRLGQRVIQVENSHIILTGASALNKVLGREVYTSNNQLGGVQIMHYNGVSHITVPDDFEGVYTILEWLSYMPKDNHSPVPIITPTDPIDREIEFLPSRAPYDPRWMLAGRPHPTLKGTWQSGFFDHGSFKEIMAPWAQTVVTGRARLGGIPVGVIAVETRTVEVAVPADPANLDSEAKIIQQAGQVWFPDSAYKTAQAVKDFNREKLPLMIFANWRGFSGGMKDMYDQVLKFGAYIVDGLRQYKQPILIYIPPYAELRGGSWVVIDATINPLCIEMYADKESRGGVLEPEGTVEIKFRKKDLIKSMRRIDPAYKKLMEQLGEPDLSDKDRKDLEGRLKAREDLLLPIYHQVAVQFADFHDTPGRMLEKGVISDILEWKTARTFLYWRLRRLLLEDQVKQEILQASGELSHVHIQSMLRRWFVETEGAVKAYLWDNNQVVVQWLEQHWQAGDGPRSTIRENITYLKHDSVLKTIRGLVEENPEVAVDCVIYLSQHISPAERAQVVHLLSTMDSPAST

pIC50 | Structure (SMILES)
8.00 | Cn1c(-c2ccccc2)cc2ccc(S(=O)(=O)N[C@H]3CC[C@H](C(=O)N4CCC[C@@H](C(C)(C)O)C4)CC3)cc21 [Example 403, N-((1R,4r)-4-((R)-3-(2-hydroxypropan-2-yl)piperidine-1-carbonyl)cyclohexyl)-1-methyl-2-phenyl-1H-indole-6-sulfonamide]
> 8.00 | Cn1c(-c2ccccc2)cc2ccc(S(=O)(=O)N[C@H]3CC[C@H](C(=O)N4CCC[C@H](C(C)(C)O)C4)CC3)cc21 [Example 404, N-((1S,4r)-4-((S)-3-(2-hydroxypropan-2-yl)piperldine-1-carbonyl)cyclohexyl)-1-methyl-2-phenyl-1H-indole-6-sulfonamide]
7.46 | C[C@H]1CCCCN1C(=O)[C@H]1CC[C@H](NS(=O)(=O)c2ccc3cc(-c4ccccc4)n(C)c3c2)CC1 [Example 405, 1-methyl-N-((1S,4r)-4-((S)-2-methylpiperidine-1-carbonyl)cyclohexyl)-2-phenyl-1H-indole-6-sulfonamide]
6.01 | Cn1c(-c2ccccc2)cc2ccc(S(=O)(=O)N[C@H]3CC[C@H](C(=O)N4CCN(C5CC5)CC4)CC3)cc21 [Example 406, N-((1r,4r)-4-(4-cyclopropylpiperazine-1-carbonyl)cyclohexyl)-1-methyl-2-phenyl-1H-indole-6-sulfonamide]
7.70 | COC[C@H]1CCCN1C(=O)[C@H]1CC[C@H](NS(=O)(=O)c2ccc3cc(-c4ccccc4)n(C)c3c2)CC1 [Example 408, N-((1R,4r)-4-((R)-2-(methoxymethyl)pyrrolidine-1-carbonyl)cyclohexyl)-1-methyl-2-phenyl-1H-indole-6-sulfonamide]
7.70 | C[C@H]1CCCCN1C(=O)[C@H]1CC[C@H](NS(=O)(=O)c2ccc3cc(-c4ccc(CCC(=O)O)cc4)n(C)c3c2)CC1 [Example 410, 3-(4-(1-methyl-6-(N-((1S,4r)-4-((S)-2-methylpiperidine-1-carbonyl)cyclohexyl)sulfamoyl)-1H-indol-2-yl)phenyl)propanoic acid]
6.62 | C[C@H]1CN(C)CCN1C(=O)[C@H]1CC[C@H](NS(=O)(=O)c2ccc3cc(-c4ccccc4)n(C)c3c2)CC1 [Example 412, N-((1S,4r)-4-((S)-2,4-dimethylpiperazine-1-carbonyl)cyclohexyl)-1-methyl-2-phenyl-1H-indole-6-sulfonamide]
7.19 | COC[C@H]1CCCN1C(=O)[C@H]1CC[C@H](NS(=O)(=O)c2ccc3c(C#N)c(C4CC4)n(C)c3c2)CC1 [Example 418, 3-cyano-2-cyclopropyl-N-((1R,4r)-4-((R)-2-(methoxymethyl)pyrrolidine-1-carbonyl)cyclohexyl)-1-methyl-1H-indole-6-sulfonamide]
7.46 | C[C@@H]1CN(C(=O)[C@H]2CC[C@H](NS(=O)(=O)c3ccc4cc(-c5ccccc5)n(C)c4c3)CC2)C[C@H](C)O1 [Example 419, N-((1R,4r)-4-((2S,6R)-2,6-dimethylmorpholine-4-carbonyl)cyclohexyl)-1-methyl-2-phenyl-1H-indole-6-sulfonamide]
6.14 | CCOC(=O)[C@H]1CCCN1C(=O)[C@H]1CC[C@H](NS(=O)(=O)c2ccc3cc(-c4ccccc4)n(C)c3c2)CC1 [Example 420, (R)-ethyl 1-((1r,4R)-4-(1-methyl-2-phenyl-1H-indole-6-sulfonamido)cyclohexanecarbonyl)pyrrolidine-2-carboxylate]
7.40 | COC[C@@H](NC(=O)[C@H]1CC[C@H](NS(=O)(=O)c2ccc3cc(-c4ccccc4)n(C)c3c2)CC1)c1ccccc1 [Example 423, (1r,4S)-N-((S)-2-methoxy-1-phenylethyl)-4-(1-methyl-2-phenyl-1H-indole-6-sulfonamido)cyclohexanecarboxamide]
7.30 | CCC1(CC)CN(C(=O)[C@H]2CC[C@H](NS(=O)(=O)c3ccc4cc(-c5ccccc5)n(C)c4c3)CC2)CCO1 [Example 424, N-((1r,4r)-4-(2,2-diethylmorpholine-4-carbonyl)cyclohexyl)-1-methyl-2-phenyl-1H-indole-6-sulfonamide]
7.52 | C[C@H]1COCCN1C(=O)[C@H]1CC[C@H](NS(=O)(=O)c2ccc3cc(-c4ccccc4)n(C)c3c2)CC1 [Example 425, 1-methyl-N-((1S,4r)-4-((S)-3-methylmorpholine-4-carbonyl)cyclohexyl)-2-phenyl-1H-indole-6-sulfonamide]
7.82 | C[C@H]1COCCN1C(=O)[C@H]1CC[C@H](NS(=O)(=O)c2ccc3cc(-c4ccc(CCC(=O)O)cc4)n(C)c3c2)CC1 [Example 427, 3-(4-(1-methyl-6-(N-((1S,4r)-4-((S)-3-methylmorpholine-4-carbonyl)cyclohexyl)sulfamoyl)-1H-indol-2-yl)phenyl)propanoic acid]

The remaining lines, values behind:

Structure (SMILES) | pIC50
COC(=O)C(C)(C)[C@@H](NC(=O)[C@H]1CC[C@H](NS(=O)(=O)c2ccc3cc(-c4ccccc4)n(C)c3c2)CC1)c1ccccc1 [Example 407, (S)-methyl 2,2-dimethyl-3-((1r,4S)-4-(1-methyl-2-phenyl-1H-indole-6-sulfonamido)cyclohexanecarboxamido)-3-phenylpropanoate] | > 8.00
Cn1c(C2CC2)cc2ccc(S(=O)(=O)N[C@H]3CC[C@H](C(=O)N[C@@H](c4ccccc4)C(C)(C)C(=O)O)CC3)cc21 [Example 409, (S)-3-((1r,4S)-4-(2-cyclopropyl-1-methyl-1H-indole-6-sulfonamido)cyclohexanecarboxamido)-2,2-dimethyl-3-phenylpropanoic acid] | > 8.00
Cn1c(-c2ccccc2)cc2ccc(S(=O)(=O)N[C@H]3CC[C@H](C(=O)N[C@@H](c4ccccc4)C(C)(C)C(=O)O)CC3)cc21 [Example 411, (S)-2,2-dimethyl-3-((1r,4S)-4-(1-methyl-2-phenyl-1H-indole-6-sulfonamido)cyclohexanecarboxamido)-3-phenylpropanoic acid] | > 8.00
C[C@@H]1COCCN1C(=O)[C@H]1CC[C@H](NS(=O)(=O)c2ccc3c(C#N)c(C4CC4)n(C)c3c2)CC1 [Example 413, 3-cyano-2-cyclopropyl-1-methyl-N-((1R,4r)-4-((R)-3-methylmorpholine-4-carbonyl)cyclohexyl)-1H-indole-6-sulfonamide] | 7.30
C[C@H]1COCCN1C(=O)[C@H]1CC[C@H](NS(=O)(=O)c2ccc3c(C#N)c(C4CC4)n(C)c3c2)CC1 [Example 414, 3-cyano-2-cyclopropyl-1-methyl-N-((1S,4r)-4-((S)-3-methylmorpholine-4-carbonyl)cyclohexyl)-1H-indole-6-sulfonamide] | 7.10
C[C@H]1CCCCN1C(=O)[C@H]1CC[C@H](NS(=O)(=O)c2ccc3c(C#N)c(-c4ccc(CCC(=O)O)cc4)n(C)c3c2)CC1 [Example 415, 3-(4-(3-cyano-1-methyl-6-(N-((1S,4r)-4-((S)-2-methylpiperidine-1-carbonyl)cyclohexyl)sulfamoyl)-1H-indol-2-yl)phenyl)propanoic acid] | > 8.00
C[C@H]1CCCCN1C(=O)[C@H]1CC[C@H](NS(=O)(=O)c2ccc3c(Cl)c(-c4ccc(CCC(=O)O)cc4)n(C)c3c2)CC1 [Example 416, 3-(4-(3-chloro-1-methyl-6-(N-((1S,4r)-4-((S)-2-methylpiperidine-1-carbonyl)cyclohexyl)sulfamoyl)-1H-indol-2-yl)phenyl)propanoic acid] | > 8.00
C[C@@H]1CN(C(=O)[C@H]2CC[C@H](NS(=O)(=O)c3ccc4c(C#N)c(C5CC5)n(C)c4c3)CC2)C[C@H](C)O1 [Example 417, 3-cyano-2-cyclopropyl-N-((1R,4r)-4-((2S,6R)-2,6-dimethylmorpholine-4-carbonyl)cyclohexyl)-1-methyl-1H-indole-6-sulfonamide] | 7.10
C[C@H]1COCCN1C(=O)[C@H]1CC[C@H](NS(=O)(=O)c2ccc3c(C#N)c(C4CC4)n(C)c3c2)CC1 [Example 421, 3-cyano-2-cyclopropyl-1-methyl-N-((1S,4r)-4-((S)-3-methylmorpholine-4-carbonyl)cyclohexyl)-1H-indole-6-sulfonamide] | 7.30
C[C@H]1COCCN1C(=O)[C@H]1CC[C@H](NS(=O)(=O)c2ccc3cc(C4CC4)n(C)c3c2)CC1 [Example 422, 2-cyclopropyl-1-methyl-N-((1S,4r)-4-((S)-3-methylmorpholine-4-carbonyl)cyclohexyl)-1H-indole-6-sulfonamide] | 6.55
C[C@H]1COCCN1C(=O)[C@H]1CC[C@H](NS(=O)(=O)c2ccc3c(Cl)c(C4CC4)n(C)c3c2)CC1 [Example 426, 3-chloro-2-cyclopropyl-1-methyl-N-((1S,4r)-4-((S)-3-methylmorpholine-4-carbonyl)cyclohexyl)-1H-indole-6-sulfonamide] | 7.26
C[C@H]1COCCN1C(=O)[C@H]1CC[C@H](NS(=O)(=O)c2ccc3c(Cl)c(-c4ccc(CCC(=O)O)cc4)n(C)c3c2)CC1 [Example 428, 3-(4-(3-chloro-1-methyl-6-(N-((1S,4r)-4-((S)-3-methylmorpholine-4-carbonyl)cyclohexyl)sulfamoyl)-1H-indol-2-yl)phenyl)propanoic acid] | > 8.00
Cn1c(-c2ccc(CCC(=O)O)cc2)c(C#N)c2ccc(S(=O)(=O)N[C@H]3CC[C@H](C(=O)N4CCC[C@H]4C(C)(C)C)CC3)cc21 [Example 429, 3-(4-(6-(N-((1S,4r)-4-((S)-2-tert-butylpyrrolidine-1-carbonyl)cyclohexyl)sulfamoyl)-3-cyano-1-methyl-1H-indol-2-yl)phenyl)propanoic acid] | 7.12
Cn1c(-c2ccc(CCC(=O)O)cc2)c(C#N)c2ccc(S(=O)(=O)N[C@H]3CC[C@H](C(=O)N4CCC[C@@H]4C(C)(C)C)CC3)cc21 [Example 430, 3-(4-(6-(N-((1R,4r)-4-((R)-2-tert-butylpyrrolidine-1-carbonyl)cyclohexyl)sulfamoyl)-3-cyano-1-methyl-1H-indol-2-yl)phenyl)propanoic acid] | > 8.00
